Where a name gives a salt, the structure may show the parent alone. Read-outs that look alike come from different tables or passages of the source.
Assays:
Human rt-PA (Activase) = biological target: T1, Human rt-PA (Activase) (Homo sapiens, UniProt P00750); assay: biochemical; settings: 30 minute incubation
T1 construct: purchased Genentech Inc
Description: (§1) The ability of compounds of the present invention to act as a selective inhibitor of thrombin catalytic activity was assessed by determining the concentration of compound which inhibited the activity of this enzyme by 50%, (IC50), and comparing this value to that determined for all or some of the following related serine proteases: recombinant tissue plasminogen activator (rt-PA), plasmin, activated protein C, chymotrypsin, factor Xa and trypsin.
(§2) The buffer used for all assays was HBSA (10 mM HEPES, pH 7.5, 150 mM sodium chloride, 0.1% bovine serum albumin).
(§3) The assay for IC50 determinations was conducted by combining in appropriate wells of a Corning microtiter plate, 50 microliters of HBSA, 50 microliters of the test compound at a specified concentration (covering a broad concentration range) diluted in HBSA (or HBSA alone for VO (uninhibited velocity) measurement), and 50 microliters of the enzyme diluted in HBSA. Following a 30 minute incubation at ambient temperature, 50 microliters of the substrate at the concentrations specified below were added to the wells, yielding a final total volume of 200 microliters. The initial velocity of chromogenic substrate hydrolysis was measured by the change in absorbance at 405 nm using a Thermo Max® Kinetic Microplate Reader over a 5 minute period in which less than 5% of the added substrate was utilized. The concentration of added inhibitor which caused a 50% decrease in the initial rate of hydrolysis was defined as the IC50 value.
Recombinant Tissue Plasminogen Activator (rt-PA) Assay
rt-PA catalytic activity was determined using the substrate, Pefachrome t-PA (CH3SO2-D-hexahydrotyrosine-glycyl-L-arginine-p-nitroaniline, obtained from Pentapharm Ltd.). The substrate was made up in deionized water followed by dilution in HBSA prior to the assay in which the final concentration was 500 micromolar (about 3-times Km). Human rt-PA (Activase®) was obtained from Genentech Inc. The enzyme was reconstituted in deionized water and diluted into HBSA prior to the assay in which the final concentration was 1.0 nM.

human plasmin = human plasmin (Homo sapiens, UniProt P00747); assay: biochemical; settings: 30 minute incubation
Description: as §1, §2, §3
Plasmin catalytic activity was determined using the chromogenic substrate, S-2366 [L-pyroglutomyl-L-prolyl-L-arginine-p-nitroaniline hydrochloride], which was obtained from Pharmacia-Upjohn. The substrate was made up in deionized water followed by dilution in HBSA prior to the assay in which the final concentration was 300 micromolar (about 2.5-times Km). Purified human plasmin was obtained from Enzyme Research Laboratories, Inc. The enzyme was diluted into HBSA prior to assay in which the final concentration was […].

human aPC = biological target: T2, human aPC (Homo sapiens, UniProt P04070); assay: biochemical; settings: 30 minute incubation; for IC50: read-out: aPC (IC50) (Table 3A)
T2 construct: purchased Hematologic Technologies, Inc
Description: as §2
Following a 30 minute incubation at ambient temperature, 50 microliters of the substrate at the concentrations specified below were added to the wells, yielding a final total volume of 200 microliters.
Activated Protein C (aPC) Assay
aPC catalytic activity was determined using the chromogenic substrate, Pefachrome PC (delta-carbobenzloxy-D-lysine-L-prolyl-L-arginine-p-nitroaniline dihydrochloride), obtained from Pentapharm Ltd.). […] Purified human aPC was obtained from Hematologic Technologies, Inc. The enzyme was diluted into HBSA prior to assay in which the final concentration was 1.0 nM.

human alpha thrombin = biological target: T3, human alpha thrombin (Homo sapiens, UniProt P00734); assay: Thrombin (fIIa) IC50 assay, chromogenic substrate Pefachrome t-PA; assay type: biochemical
T3 construct: Purified human alpha-thrombin; purchased Enzyme Research Laboratories, Inc
Description: as §1, §2, §3
Enzyme activity was determined using the chromogenic substrate, Pefachrome t-PA (CH3SO2-D-hexahydrotyrosine-glycyl-L-Arginine-p-nitroaniline, obtained from Pentapharm Ltd.). The substrate was reconstituted in deionized water prior to use. Purified human a-thrombin was obtained from Enzyme Research Laboratories, Inc. The buffer used for all assays was HBSA (10 mM HEPES, pH 7.5, 150 mM sodium chloride, 0.1% bovine serum albumin).
IC50 determinations were conducted where HBSA ([…]), a-thrombin (50 μl) and inhibitor (50 μl) (covering a broad concentration range), were combined in appropriate wells and incubated for 30 minutes at room temperature prior to the addition of substrate Pefachrome-t-PA (50 μl). The initial velocity of Pefachrome t-PA hydrolysis was measured by the change in absorbance at 405 nm using a Thermo Max® Kinetic Microplate Reader over a 5 minute period in which less than 5% of the added substrate was utilized. The concentration of added inhibitor which caused a 50% decrease in the initial rate of hydrolysis was defined as the IC50 value.

[1] = read-out: rt-PA (IC50) (Table 3A)
[2] = read-out: Plasmin (IC50) (Table 3A)
[3] = read-out: Plasmin IC50 (Table 3B)
[4] = 30 minute incubation, read-out: Thrombin IC50 (Table 3C)

T1 sequence (P00750 36-562): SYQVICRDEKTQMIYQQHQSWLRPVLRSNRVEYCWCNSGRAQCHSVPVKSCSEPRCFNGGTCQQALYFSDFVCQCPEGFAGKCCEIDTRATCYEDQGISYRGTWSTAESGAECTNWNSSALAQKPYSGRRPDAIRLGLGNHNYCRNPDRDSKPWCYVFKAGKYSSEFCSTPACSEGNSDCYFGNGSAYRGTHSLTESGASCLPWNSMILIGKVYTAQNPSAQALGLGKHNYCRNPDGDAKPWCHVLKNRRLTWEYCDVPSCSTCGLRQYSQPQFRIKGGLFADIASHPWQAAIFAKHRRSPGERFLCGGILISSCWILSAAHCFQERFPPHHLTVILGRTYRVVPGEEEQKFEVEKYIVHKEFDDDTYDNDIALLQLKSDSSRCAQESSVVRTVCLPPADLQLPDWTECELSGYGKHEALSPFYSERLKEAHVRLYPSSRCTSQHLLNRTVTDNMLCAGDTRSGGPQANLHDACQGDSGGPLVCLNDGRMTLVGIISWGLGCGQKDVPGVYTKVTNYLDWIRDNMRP
Chain of human plasmin (P00747 97-580): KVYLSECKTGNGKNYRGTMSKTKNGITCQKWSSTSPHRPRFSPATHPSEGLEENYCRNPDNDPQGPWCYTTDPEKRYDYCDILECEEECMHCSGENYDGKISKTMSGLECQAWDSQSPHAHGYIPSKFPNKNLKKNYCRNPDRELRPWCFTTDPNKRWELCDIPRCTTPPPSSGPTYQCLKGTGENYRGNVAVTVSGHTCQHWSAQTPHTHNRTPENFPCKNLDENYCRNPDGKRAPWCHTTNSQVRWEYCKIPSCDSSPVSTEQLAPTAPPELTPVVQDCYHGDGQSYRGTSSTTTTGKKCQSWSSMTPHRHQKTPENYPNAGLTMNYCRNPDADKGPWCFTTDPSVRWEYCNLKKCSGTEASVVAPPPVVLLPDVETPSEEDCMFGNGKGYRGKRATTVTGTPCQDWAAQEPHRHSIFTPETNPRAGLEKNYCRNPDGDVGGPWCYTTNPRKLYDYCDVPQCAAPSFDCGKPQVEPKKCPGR
Chain of human plasmin (P00747 581-810): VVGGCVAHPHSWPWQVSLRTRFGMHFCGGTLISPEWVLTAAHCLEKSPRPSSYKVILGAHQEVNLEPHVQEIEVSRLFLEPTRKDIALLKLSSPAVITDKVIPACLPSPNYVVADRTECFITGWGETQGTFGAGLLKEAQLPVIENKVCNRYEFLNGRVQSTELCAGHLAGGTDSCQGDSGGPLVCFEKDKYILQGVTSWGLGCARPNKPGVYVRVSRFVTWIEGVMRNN
T2 sequence (P04070 43-197): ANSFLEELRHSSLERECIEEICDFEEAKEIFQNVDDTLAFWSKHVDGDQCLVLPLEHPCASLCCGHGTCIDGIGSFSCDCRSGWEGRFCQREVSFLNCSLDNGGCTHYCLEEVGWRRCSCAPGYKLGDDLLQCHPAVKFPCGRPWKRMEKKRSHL
T2 sequence (P04070 212-461): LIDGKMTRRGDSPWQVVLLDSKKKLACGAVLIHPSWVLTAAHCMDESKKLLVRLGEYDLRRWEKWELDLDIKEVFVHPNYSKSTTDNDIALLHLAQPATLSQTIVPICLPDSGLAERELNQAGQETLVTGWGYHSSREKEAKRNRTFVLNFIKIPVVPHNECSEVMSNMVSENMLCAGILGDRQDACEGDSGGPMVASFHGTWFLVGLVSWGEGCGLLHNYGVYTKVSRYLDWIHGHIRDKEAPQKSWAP

Compound	IC50 (Human rt-PA (Activase); [1]) [nM]	IC50 (human plasmin; [2]) [nM]	IC50 (human aPC) [nM]	IC50 (human alpha thrombin) [nM]	IC50 (human plasmin; [3]) [nM]	other results
Cc1ccc(F)cc1S(=O)(=O)Nc1cccn(CC(=O)N[C@H](C=O)CCCNC(=N)N)c1=O [2-Me, 5-F-phenyl, [3-(2-methyl-5-fluorophenyl)sulfonylamino-2-oxo-1,2-dihydro-pyridyl]acetyl-L-argininal]	> 2500	> 2500	> 2500	1.97	–	–
COc1ccc(Cl)cc1S(=O)(=O)Nc1cccn(CC(=O)NC(C=O)CCCNC(=N)N)c1=O [2-OMe, 5-Cl-phenyl, (5-chloro-2-methoxy-phenylsulfonyl-3-amino-2-oxo-1,2-dihydropyridyl)acetyl-L-Argininal, trifluoroacetate salt]	> 2500	> 2500	> 2500	1.16	–	–
N=C(N)NCCC[C@@H](C=O)NC(=O)Cn1cccc(NS(=O)(=O)c2ccccc2C(F)(F)F)c1=O [Compound 2-CF3-phenyl]	> 2500	> 2500	> 2500	5.6	–	–
Cc1ccccc1S(=O)(=O)Nc1cccn(CC(=O)N[C@H](C=O)CCCNC(=N)N)c1=O [Compound 2-Me-phenyl, [3-(2-methylphenyl)sulfonylamino-2-oxo-1,2-dihydropyridyl]acetyl-L-argininal]	> 2500	> 2500	> 2500	1.4	–	–
N=C(N)NCCC[C@@H](C=O)NC(=O)Cn1cccc(NS(=O)(=O)c2ccccc2N)c1=O [Compound 2-NH2phenyl, [3-(2-aminophenyl)sulfonylamino-2-oxo-1,2-dihydropyridyl]acetyl-L-argininal]	> 2500	> 2500	> 2500	3.7	–	–
COc1ccccc1S(=O)(=O)Nc1cccn(CC(=O)N[C@H](C=O)CCCNC(=N)N)c1=O [Compound 2-OMe-phenyl, [3-(2-methoxylphenyl)sulfonylamino-2-oxo-1,2-dihydropyridyl]acetyl-L-argininal]	> 2500	> 2500	> 2500	1.98	–	–
N=C(N)NCCC[C@@H](C=O)NC(=O)Cn1cccc(NS(=O)(=O)c2cccc(C(F)(F)F)c2)c1=O [Compound 3-CF3-phenyl, [3-(3-trifluoromethylphenyl)sulfonylamino-2-oxo-1,2-dihydro-pyridyl]acetyl-L-argininal]	> 2500	> 2500	> 2500	3.1	–	–
Cc1cccc(S(=O)(=O)Nc2cccn(CC(=O)N[C@H](C=O)CCCNC(=N)N)c2=O)c1 [Compound 3-Me-phenyl, [3-(3-methyiphenyl)sulfonylamino-2-oxo-1,2-dihydro-pyridyl]acetyl-L-argininal]	> 2500	> 2500	> 2500	0.85	–	–
COc1cccc(S(=O)(=O)Nc2cccn(CC(=O)N[C@H](C=O)CCCNC(=N)N)c2=O)c1 [Compound 3-OMe-phenyl, [3-(3-methoxylphenyl)sulfonylamino-2-oxo-1,2-dihydropyridyl]acetyl-L-argininal]	> 2500	> 2500	> 2500	0.65	–	–
N=C(N)NCCC[C@@H](C=O)NC(=O)Cn1cccc(NS(=O)(=O)c2ccccc2F)c1=O [Compound 121A]	–	–	–	14.7	> 2500	–
COc1ccc(OC)c(S(=O)(=O)Nc2cccn(CC(=O)N[C@H](C=O)CCCNC(=N)N)c2=O)c1 [Compound 121E, [3-(2,5-dimethoxyphenyl)sulfonylamino-2-oxo-1,2-dihydropyridyl]acetyl-L-argininal]	–	–	–	0.597	> 2500	rtPA IC50 (Table 3B) (Human rt-PA (Activase)): inactive; aPC IC50 (Table 3B) (human aPC): inactive
N=C(N)NCCC[C@@H](C=O)NC(=O)Cn1cccc(NS(=O)(=O)CCc2ccccc2)c1=O [Compound 121G, [3-(phenethyl)sulfonylamino-2-oxo-1,2-dihydropyridyl]acetyl-L-argininal]	–	–	–	46.9	~2500	–
N=C(N)NCCC[C@@H](C=O)NC(=O)Cn1cccc(NS(=O)(=O)Cc2ccccc2F)c1=O [Compound 121J]	–	–	–	0.763	> 2500	IC50 (Human rt-PA (Activase); read-out: rtPA IC50 (Table 3B)): > 2500 nM; aPC IC50 (Table 3B) (human aPC): inactive
N=C(N)NCCC[C@@H](C=O)NC(=O)Cn1cccc(NS(=O)(=O)Cc2cccc(F)c2)c1=O [Compound 121K]	–	–	–	0.882	> 2500	rtPA IC50 (Table 3B) (Human rt-PA (Activase)): inactive; aPC IC50 (Table 3B) (human aPC): inactive
COC(=O)c1ccccc1CS(=O)(=O)Nc1cccn(CC(=O)N[C@H](C=O)CCCNC(=N)N)c1=O [Compound 121M]	–	–	–	0.623	> 2500	–
N=C(N)NCCC[C@@H](C=O)NC(=O)Cn1cccc(NS(=O)(=O)Cc2cc(F)ccc2F)c1=O [Compound 121P, [3-(2,5-difluorobenzyl)sulfonylamino-2-oxo-1,2-dihydropyridyl]acetyl-L-argininal]	–	–	–	1.73	> 2500	IC50 (Human rt-PA (Activase); read-out: rtPA IC50 (Table 3B)): > 2500 nM; aPC IC50 (Table 3B) (human aPC): inactive
Cc1ccc(F)cc1S(=O)(=O)Nc1ccc(C)n(CC(=O)N[C@H](C=O)CCCNC(=N)N)c1=O [Compound 126B, [3-(5-fluoro-2-methylphenyl)sulfonylamino-6-methyl-2-oxo-1,2-dihydro-pyridyl]acetyl-L-argininal]	–	–	–	0.882	> 2500	rtPA IC50 (Table 3B) (Human rt-PA (Activase)): inactive; aPC IC50 (Table 3B) (human aPC): inactive
COc1cccc(S(=O)(=O)Nc2ccc(=O)n(CC(=O)N[C@H](C=O)CCCNC(=N)N)c2)c1OC [Compound 152B, [5-(2,3-dimethoxy-benzene)sulfonylamino-2-oxo-1,2-dihydropyridyl]acetyl-L-argininal]	–	–	–	–	–	IC50 (human alpha thrombin; [4]): 14.9 nM
Cc1ccc(NS(=O)(=O)Cc2ccccc2)c(=O)n1CC(=O)N[C@H](C=O)CCCNC(=N)N [Compound C, (3-benzylsulfonylamino-6-methyl-2-oxo-1,2-dihydro-1-pyridyl)acetyl-L-argininal, trifluoroacetate salt]	–	–	–	0.467	–	IC50 (human plasmin; read-out: IC50 Plasmin (Table 2)): > 2500 nM
[2,3-methylenedioxy-benzene)sulfonylamino-2-oxo-1,2-dihydropyridyl]acetyl-L-argininal [Compound 152D]	–	–	–	–	–	IC50 (human alpha thrombin; [4]): 0.794 nM
[5-(1,3-benzodioxole)sulfonylalmino-6-methyl-2-oxo-1,2-dihydro-pyridyl]acetyl-L-argininal [Compound 153D]	–	–	–	–	–	IC50 (human alpha thrombin; [4]): 0.31 nM
[5-(1,3-benzodioxole)sulfonylamino-2-oxo-1,2-dihydropyridyl]acetyl-L-argininal [Compound 152A]	–	–	–	–	–	IC50 (human alpha thrombin; [4]): 0.807 nM
[5-(1,4-benzodioxan)sulfonylamino-6-methyl-2-oxo-1,2-dihydro-pyridyl]acetyl-L-argininal [Compound 153B]	–	–	–	–	–	IC50 (human alpha thrombin; [4]): 0.274 nM
[5-(2,3-dihydrobenzofuran)sulfonylamino-6-methyl-2-oxo-1,2-dihydro-pyridyl]acetyl-L-argininal [Compound 153C]	–	–	–	–	–	IC50 (human alpha thrombin; [4]): 0.266 nM
[5-(2,3-dioxaspirocyclohexyl)-sulfonylamino-2-oxo-1,2-dihydropyridyl]acetyl-L-argininal [Compound 152C]	–	–	–	–	–	IC50 (human alpha thrombin; [4]): 6.01 nM
